Values quoted from earlier work as cited in patent publication US20220409620A1, “REDUCING IMMUNOGENICITY TO PEGLOTICASE” (Horizon Pharma Rheumatology LLC, priority 2016, published 2022).

Tested on: patients
Conditions: patients treated with allopurinol; cited from earlier work

For `Oc1ncnc2[nH]ncc12` [allopurinol], the “patients developing allergic reactions” value is given as “Approximately 2%” and the severe hypersensitivity syndrome is given as “about 0.4%”.
